Source: patent publication US20170152245A1 (National Taiwan University, priority 2015, published 2017)

Key:
human platelets = assay: Flow cytometric analysis of P-selectin expression; format: cell-based; details: for U46619-induced P-selectin expression: U46619 1 μM; for collagen-induced P-selectin expression: collagen 10 μg/ml
Experimental: […] Then the sample was further incubated with FITC-labeled anti-CD62P in the dark at room temperature. Prior to analysis, the volume was adjusted to 1 mL/tube with Tyrode's solution. The suspensions were immediately assayed by fluorescence activated cell sorter (Becton-Dickinson, FACScan System, San Joe, Calif.) using excitation and emission wavelength of 488 and 525 nm, respectively. Data were collected from 10000 platelets per experimental group. The level of P-selectin expression was expressed as mean fluorescence intensity.

mouse PRP = assay: Ex vivo mouse PRP aggregation caused by U46619; format: in vivo, mice; details: 10 μg/g i.v.; U46619 0.125 μM; compared to nstpbp5185
Experimental: Mice were i.v. injected with vehicle, nstpbp5185 (10 μg/g) or Ctkf6f2 (10 μg/g). The blood samples were collected within 10 mins by intracardiac puncture for PRP, and U46619 (0.125 μM) was added. Platelet aggregation was measured turbidimetrically using platelet aggregometer. Shown are representative of three independent experiments.
Furthermore, the platelet aggregation was evaluated on ex vivo mouse model. The mouse was i.v. administered with compound 5185 (10 μg/g) or Ctkf6f2 (10 μg/g), compared to the vehicle-treated control. The blood was collected and evaluated for its response to U46619 (0.125 μM) on the aggregometer (FIG. 10).

[1] = system: human platelet-rich plasma; assay: Arachidonic acid-induced platelet aggregation in human platelet-rich plasma; format: cell-based; details: arachidonic acid 200 μM
Experimental: (§1) Human platelet suspension (PS) was prepared according to the method described previously. Briefly, blood sample, freshly obtained from healthy volunteers who had taken no medications during the preceding 2 weeks, was treated with acid citrate/dextrose (ACD) in a volume ratio of 9:1. After centrifugation at 120 g, 25° C. for 9 min, platelet-rich plasma was transferred into another plastic tube and incubated with heparin (6.4 U/ml) as well as prostaglandin E1 (1 μM). Platelets were spun down by centrifugation at 500 g, 25° C. for 8 min and subsequently washed two times with Tyrode solution (NaH2PO4 0.4 mM; NaCl 136.9 mM; KCl […]; NaHCO3 11.9 mM; CaCl2 2 mM; MgCl2 2.1 mM; glucose 11.1 mM; BSA 3.5 mg/ml; pH 7.35-7.4). The washed platelets were finally suspended in Tyrode's solution and the platelet count was adjusted to 3.75×10^8 platelets/ml. For platelet-rich plasma (PRP) preparation, whole blood was anticoagulated with 1/10 vol of sodium citrate (3.8%, w/v) and centrifuged at 150 g, 25° C. for 9 min.
(§2) Platelet aggregation was measured turbidimetrically with a Lumi-aggregometer (Payton Scientific) at 37° C. under stirring condition (900 rpm). […] The extent of platelet aggregation was determined by recording the increase of light transmission relative to that of control (maximal aggregation, as 100%) for 6 min after the addition of inducer. […]

[2] = system: mesenteric venules of mice; assay: Fluorescein sodium-induced platelet thrombus formation in mesenteric venules of mice; format: in vivo; details: for average time to occlusion (TTO): 10 μg/g i.v., mice; for occlusion time: i.v., 5 min after administration
Experimental: A modification of the method was used. Male ICR mice (12-14 g) were anesthetized with sodium pentobarbital (50 mg/kg, i.p.). […] Five min later, various doses of nstpbp5185 (2 and 4 μg/g), aspirin (150 and 250 μg/g), or DMSO (control) were administered by i.v. through other lateral tail vein. The injected volume of the nstpbp5185, aspirin, or DMSO (control) was smaller than 10 μl. A segment of the small intestine with its mesentery attached was exteriorized through a midline incision on the abdominal wall and placed onto a transparent plastic plate for microscopic observation. Frequent rinsing of the mesentery with warm isotonic saline kept at 37° C. was performed to prevent the mesentery from drying out. Microvessels in the mesentery were observed under transillumination from a halogen lamp. Venules with diameters of 30-40 μm were selected to be irradiated to produce a microthrombus. In the epi-illumination system, light from a 100-W mercury lamp was filtered through a filter (B-2A, Nikon, Tokyo, Japan) with a dichromic mirror (DM 510, Nikon). The filtered light eliminated wavelengths below 520 nm irradiated a microvessel through an objective lens (20×). The area of irradiation was about 100 μm in diameter on the focal plane. Ten minutes after administration of the dye, the irradiation by filtered light and a timer were simultaneously started, and thrombus formation was observed on a TV-monitor. Occlusion time was recorded as the time interval for inducing thrombus formation leading to cessation of blood flow.
After giving 50 μg/g fluorescein sodium, the irradiation of mesenteric venules induced thrombus formation which is consist of activated platelets and fibrin clots. […] In the vehicle-treated group, the average TTO was approximately 143.71±4.99 sec (n=17). The group pre-treated with compound 5185 (10 μg/g), the average TTO value was 208.67±6.99 sec (n=12).

[3] = system: human platelet suspension; assay: Thrombin-induced platelet aggregation in human platelet suspension; format: cell-based; details: data not shown
Experimental: as §1, §2

Compound	U46619-induced P-selectin expression (human platelets)	collagen-induced P-selectin expression (human platelets)	inhibition of platelet aggregation of PRP induced by U46619, ex vivo (mouse PRP)	IC50 [1] [µM]	average time to occlusion (TTO) [2] [s]	effect on platelet aggregation caused by thrombin [3]	occlusion time within 70 min after administration ([2]; 4 μg g^−1 i.v.) [s]	time until occlusion time returned to the control value ([2]; 4 μg g^−1 i.v.) [min]	occlusion time ([2]; 4 μg/g) [s]	occlusion time ([2]; first dose of 'respectively' (2 μg/g)) [s]
Cc1ccc(-c2nc3ccc(F)cc3n2Cc2cccc(F)c2)o1 [Ctkf6f2, 6-fluoro-1-(3-fluorobenzyl)-2-(5-methyl-2-furyl)benzimidazole]	decreased	decreased	superior inhibition	8.87 ± 2.52	267.93 ± 12.64	–	–	–	–	–
Cc1ccc(-c2nc3ccccc3n2Cc2ccccc2)o1 [Example 6, 1-Benzyl-2-(5-methyl-2-furyl)benzimidazole]	significantly reduced	concentration-dependently reduced to baseline	–	–	208.67 ± 6.99	little effects	157.5 ± 12.5	≤ 90	170.9 ± 28.0	110.5 ± 18.0
